Results from patent EP1027361B1, “6,11-BRIDGED ERYTHROMYCIN DERIVATIVES” (Abbott Laboratories, priority 1997, dated 1999).

Experiments:
Assay in all cases: in vitro antibacterial activity, agar dilution MIC
Format in all cases: cell-based
[1] = test system: Streptococcus Pheumoniae ATCC6303; design: unit not given here; conditions: organism code XX, BHI agar, 35-37 °C, 20 to 24 hours
Method: (§1) Erythromycin A was used for this purpose.
(§2) After incubation, each plate was visually inspected.

[2] = test system: Streptococcus pyogenes EES61; design: unit not given here; conditions: organism code LL, BHI agar, 35-37 °C, 20 to 24 hours
Method: as §1, §2

[3] = test system: Streptococcus agalactiae CMX 508; design: unit not given here; conditions: organism code KK, BHI agar, 35-37 °C, 20 to 24 hours
Method: as §1, §2

[4] = test system: Streptococcus bovis A-5169; design: unit not given here; conditions: organism code JJ, BHI agar, 35-37 °C, 20 to 24 hours
Method: as §1, §2

[5] = test system: Staphylococcus aureus ATCC 6538P; design: unit not given here; conditions: organism code AA, BHI agar, 35-37 °C, 20 to 24 hours
Method: as §1, §2

[6] = test system: Streptococcus pyogenes PIU 2548; conditions: organism code NN, BHI agar, 35-37 °C, 20 to 24 hours
Method: (§3) Representative compounds of the present invention were assayed in vitro for antibacterial activity as follows: Twelve petri dishes containing successive aqueous dilutions of the test compound mixed with 10 mL of sterilized Brain Heart Infusion (BHI) agar (Difco 0418-01-5) were prepared. Each plate was inoculated with 1:100 (or 1:10 for slow-growing strains, such as Micrococcus and Streptococcus) dilutions of up to 32 different microorganisms, using a Steers replicator block. […] In addition, a control plate, using BHI agar containing no test compound, was prepared and incubated at the beginning and end of each test
(§4) An additional plate containing a compound having known susceptibility patterns for the organisms being tested and belonging to the same antibiotic class as the test compound was also prepared and incubated as a further control, as well as to provide test-to-test comparability.
(§5) After incubation, each plate was visually inspected. The minimum inhibitory concentration (MIC) was defined as the lowest concentration of drug yielding no growth, a slight haze, or sparsely isolated colonies on the inoculum spot as compared to the growth control.

Candida albicans CCH 442 = conditions: organism code TT, BHI agar, 35-37 °C, 20 to 24 hours
Method: as §3, §4, §5

[7] = test system: Streptococcus pyogenes 930; conditions: organism code MM, BHI agar, 35-37 °C, 20 to 24 hours
Method: as §3, §4, §5

[8] = test system: Streptococcus Pheumoniae 5979; conditions: organism code ZZ, BHI agar, 35-37 °C, 20 to 24 hours
Method: as §3, §4, §5

Escherichia coli DC-2 = conditions: organism code SS, BHI agar, 35-37 °C, 20 to 24 hours
Method: as §3, §4, §5

[9] = test system: Staphylococcus aureus 1775; conditions: organism code GG, BHI agar, 35-37 °C, 20 to 24 hours
Method: as §3, §4, §5

[10] = test system: Staphylococcus aureus A-5278; conditions: organism code CC, BHI agar, 35-37 °C, 20 to 24 hours
Method: as §3, §4, §5

[11] = test system: Staphylococcus aureus A5177; design: unit not given here; conditions: organism code BB, BHI agar, 35-37 °C, 20 to 24 hours
Method: as §3, §4, §5

[12] = test system: Mycobacterium smegmatis ATCC 114; design: unit not given here; conditions: organism code UU, BHI agar, 35-37 °C, 20 to 24 hours
Method: as §3, §4, §5

[13] = test system: Micrococcus luteus ATCC 9341; conditions: organism code OO, BHI agar, 35-37 °C, 20 to 24 hours
Method: as §1, §2

[14] = test system: Streptococcus Pheumoniae GYR 1171; conditions: organism code YY, BHI agar, 35-37 °C, 20 to 24 hours
Method: as §1, §2

[15] = test system: Staphylococcus aureus CMX 553; conditions: organism code FF, BHI agar, 35-37 °C, 20 to 24 hours
Method: as §1, §2

[16] = test system: Staphylococcus aureus NCTC10649M; conditions: organism code EE, BHI agar, 35-37 °C, 20 to 24 hours
Method: as §1, §2

[17] = test system: Streptococcus Pheumoniae 5649; conditions: organism code ZZA, BHI agar, 35-37 °C, 20 to 24 hours
Method: as §1, §2

[18] = test system: Staphylococcus aureus CMX 642A; conditions: organism code DD, BHI agar, 35-37 °C, 20 to 24 hours
Method: as §1, §2

Escherichia coli SS = conditions: organism code RR, BHI agar, 35-37 °C, 20 to 24 hours
Method: as §1, §2

Escherichia coli JUHL = conditions: organism code QQ, BHI agar, 35-37 °C, 20 to 24 hours
Method: as §1, §2

[19] = test system: Nocardia Asteroides ATCC9970; conditions: organism code VV, BHI agar, 35-37 °C, 20 to 24 hours
Method: as §1, §2

[20] = test system: Enterococcus faecium ATCC 8043; conditions: organism code II, BHI agar, 35-37 °C, 20 to 24 hours
Method: as §1, §2

[21] = test system: Haemophilis Influenzae DILL AMP R; conditions: organism code WW, BHI agar, 35-37 °C, 20 to 24 hours
Method: as §1, §2

[22] = test system: Micrococcus luteus ATCC 4698; conditions: organism code PP, BHI agar, 35-37 °C, 20 to 24 hours
Method: as §1, §2

[23] = test system: Staphylococcus epidermidis 3519; conditions: organism code HH, BHI agar, 35-37 °C, 20 to 24 hours
Method: as §1, §2

| SMILES | minimum inhibitory concentration (MIC) [1] | minimum inhibitory concentration (MIC) [2] | minimum inhibitory concentration (MIC) [3] | minimum inhibitory concentration (MIC) [4] | minimum inhibitory concentration (MIC) [5] | minimum inhibitory concentration (MIC) [6] | minimum inhibitory concentration (MIC) (Candida albicans CCH 442) | minimum inhibitory concentration (MIC) [7] | minimum inhibitory concentration (MIC) [8] | minimum inhibitory concentration (MIC) (Escherichia coli DC-2) | minimum inhibitory concentration (MIC) [9] | minimum inhibitory concentration (MIC) [10] | minimum inhibitory concentration (MIC) [11] | minimum inhibitory concentration (MIC) [12] | minimum inhibitory concentration (MIC) [13] | minimum inhibitory concentration (MIC) [14] | minimum inhibitory concentration (MIC) [15] | minimum inhibitory concentration (MIC) [16] | minimum inhibitory concentration (MIC) [17] | minimum inhibitory concentration (MIC) [18] | other results |
| --- | --- | --- | --- | --- | --- | --- | --- | --- | --- | --- | --- | --- | --- | --- | --- | --- | --- | --- | --- | --- | --- |
| CC[C@H]1OC(=O)[C@H](C)[C@@H](O[C@H]2C[C@@](C)(OC)[C@@H](OC(C)=O)[C@H](C)O2)[C@H](C)[C@@H](O[C@@H]2O[C@H](C)C[C@H](N(C)C)[C@H]2O)[C@@]2(C)C[C@@H](C)C(=O)[C@H](C)[C@H]3N(CCNCc4cccc(c4)C=CCO2)C(=O)O[C@]13C [Example 10, Compound of Formula (I), 2'-R^p is H, 4"-R^p is acetyl, m is 2, A is NH, B is-(CH2)q-, q is 1, D is 1,3-phenylene, E is-(CH2)r-CH=CH-, r is 0, n is 1] | 0.12 | 0.78 | 0.39 | 0.39 | 6.2 | 6.2 | >100 | 25 | 64 | >100 | 100 | 100 | 25 | 0.39 | 0.39 | 0.25 | 6.2 | 6.2 | 8 | 6.2 | minimum inhibitory concentration (MIC) (Escherichia coli SS): 6.2; minimum inhibitory concentration (MIC) (Escherichia coli JUHL): >100; minimum inhibitory concentration (MIC) [19]: 1.56; minimum inhibitory concentration (MIC) [20]: 0.78; minimum inhibitory concentration (MIC) [21]: 64; minimum inhibitory concentration (MIC) [22]: 1.56; minimum inhibitory concentration (MIC) [23]: 6.2 |
| CC[C@H]1OC(=O)[C@H](C)C(=O)[C@H](C)[C@@H](O[C@@H]2O[C@H](C)C[C@H](N(C)C)[C@H]2O)[C@@]2(C)C[C@@H](C)C(=O)[C@H](C)[C@H]3N(CCOCc4ccccc4C=CCO2)C(=O)O[C@]13C [Example 12, Compound of Formula (II), R^p is H, m is 2, A is -O-, B is-(CH2)q-, q is 1, D is 1,2-phenylene, E is-(CH2)r-CH=CH-, r is 0, n is 1] | 0.25 | 0.05 | 0.1 | 0.05 | 0.78 | 0.39 | >100 | 50 | 128 | >100 | >100 | >100 | 0.78 | 0.78 | 0.2 | 0.125 | 0.78 | 0.78 | 1 | 0.78 | minimum inhibitory concentration (MIC) (Escherichia coli SS): 1.56; minimum inhibitory concentration (MIC) (Escherichia coli JUHL): >100; minimum inhibitory concentration (MIC) [19]: 0.78; minimum inhibitory concentration (MIC) [20]: 0.1; minimum inhibitory concentration (MIC) [21]: 16; minimum inhibitory concentration (MIC) [22]: 0.39; minimum inhibitory concentration (MIC) [23]: 0.78 |
| CC[C@H]1OC(=O)[C@H](C)[C@@H](O[C@H]2C[C@@](C)(OC)[C@@H](O)[C@H](C)O2)[C@H](C)[C@@H](O[C@@H]2O[C@H](C)C[C@H](N(C)C)[C@H]2O)[C@@]2(C)C[C@@H](C)C(=O)[C@H](C)[C@H]3N(CCCCO2)C(=O)O[C@]13C [Example 15, Compound of Formula (I), R^p is H, m is 3, A is absent, B is absent, D is absent, E is absent, n is 1] | 0.03 | 0.1 | 0.05 | 0.05 | 0.39 | 6.2 | >100 | >100 | >128 | >100 | >100 | >100 | 3.1 | 1.56 | 0.05 | 0.03 | 0.39 | 0.78 | 16 | 0.39 | minimum inhibitory concentration (MIC) (Escherichia coli SS): 3.1; minimum inhibitory concentration (MIC) (Escherichia coli JUHL): >100; minimum inhibitory concentration (MIC) [19]: 0.1; minimum inhibitory concentration (MIC) [20]: 0.1; minimum inhibitory concentration (MIC) [21]: 32; minimum inhibitory concentration (MIC) [22]: 0.39; minimum inhibitory concentration (MIC) [23]: 0.39 |
| CC[C@H]1OC(=O)[C@H](C)C(=O)[C@H](C)[C@@H](O[C@@H]2O[C@H](C)C[C@H](N(C)C)[C@H]2O)[C@@]2(C)C[C@@H](C)C(=O)[C@H](C)[C@H]3N(CC=CCO2)C(=O)O[C@]13C [Example 16, Compound of Formula (II), R^p is H, m is 1, A is absent, B is absent, D is absent, E is-(CH2)r-CH=CH-, r is 0, n is 1] | 0.25 | 0.2 | 0.2 | 0.2 | 0.39 | 0.39 | >100 | >100 | >128 | >100 | >100 | >100 | 0.39 | 6.2 | 0.2 | 0.25 | 0.39 | 0.39 | 0.5 | 0.39 | minimum inhibitory concentration (MIC) (Escherichia coli SS): 0.78; minimum inhibitory concentration (MIC) (Escherichia coli JUHL): >100; minimum inhibitory concentration (MIC) [19]: 0.39; minimum inhibitory concentration (MIC) [20]: 0.2; minimum inhibitory concentration (MIC) [21]: 32; minimum inhibitory concentration (MIC) [22]: 0.39; minimum inhibitory concentration (MIC) [23]: 0.39 |
